Entries after “also recorded” stand apart in the source; their conditions may differ.
Legend:
[1] = molecular target: T1, COX-1 (Ovis aries, UniProt P05979); experiment: In vitro COX-1 inhibition, fluorescent inhibitor screening assay kit; details: for inhibitory activity on COX-1: at a concentration of 100 μM
T1 sequence (P05979 25-600): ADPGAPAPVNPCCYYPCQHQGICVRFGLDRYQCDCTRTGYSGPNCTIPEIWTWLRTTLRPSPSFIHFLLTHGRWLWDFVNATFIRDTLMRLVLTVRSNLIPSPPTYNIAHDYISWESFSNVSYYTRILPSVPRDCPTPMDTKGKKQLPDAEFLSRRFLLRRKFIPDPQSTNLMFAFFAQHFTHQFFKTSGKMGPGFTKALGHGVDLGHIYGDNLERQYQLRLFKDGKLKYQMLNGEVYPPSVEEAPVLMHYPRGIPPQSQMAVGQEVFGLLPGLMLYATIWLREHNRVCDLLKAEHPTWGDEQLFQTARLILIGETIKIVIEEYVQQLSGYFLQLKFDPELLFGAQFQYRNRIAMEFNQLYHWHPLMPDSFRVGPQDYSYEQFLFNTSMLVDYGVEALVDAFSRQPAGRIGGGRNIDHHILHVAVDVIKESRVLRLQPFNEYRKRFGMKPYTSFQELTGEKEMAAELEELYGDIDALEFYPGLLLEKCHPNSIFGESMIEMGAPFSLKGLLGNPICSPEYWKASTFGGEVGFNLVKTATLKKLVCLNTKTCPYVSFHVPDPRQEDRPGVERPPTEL
Procedure: (§2) Test compounds, dissolved in DMSO, and were pre-incubated with the enzymes at 37 °C for 5 min before initiating the reaction with 1 mM arachidonic acid under light-protected conditions. The fluorescence was measured using a multi-well spectrophotometer (fluorescence plate reader). […] The percentage inhibition was calculated by comparing the absorbance values of the compounds to the vehicle control.
(§3) This protocol utilizes a colorimetric assay to measure the peroxidase activity of Prostaglandin G/H
(§4) Synthase (COX enzyme). The COX enzyme converts Arachidonic Acid (AA) to Prostaglandin G2
(§5) (PGG2), which is then reduced to Prostaglandin H2 (PGH2) by the inherent peroxidase activity.
(§6) peroxidase reaction co-oxidizes a chromogen, such as N,N,N',N'-Tetramethyl-p-phenylenediamine
(§7) (TMPD), resulting in a colored product that can be measured spectrophotometrically at 590-630 nm.
(§8) inhibition of COX enzyme by a test compound reduces the formation of this colored product, allowing
(§9) for the calculation of percentage inhibition and subsequent IC50 values.
(§10) o Ovine COX-1 (purified, commercially available)
(§11) • Substrate: Arachidonic Acid (AA). Prepare a stock solution in ethanol. Note: AA is unstable;
(§12) aliquot and store under inert gas (e.g., Argon) at -80°C.
(§13) • Cofactor: Hemin. Prepare a stock solution in DMSO.
(§14) • Chromogen: N,N,N',N'-Tetramethyl-p-phenylenediamine (TMPD) dihydrochloride.
(§15) • Assay Buffer: 100 mM Tris-HCl buffer, pH 8.0. May contain 1-5 mM EDTA and 1-2 µM
Phenol (acts as a cofactor for COX-2).
(§16) • Solvents: Dimethyl Sulfoxide (DMSO), Ethanol (absolute).
(§17) consistent across all wells (typically ≤1% final concentration).
o Keep all dilutions on ice.
(§18) o COX-1 Working Solution: Dilute ovine COX-1 in ice-cold assay buffer to a final
(§19) concentration of ~50-100 U/mL. Add Hemin to a final concentration of 1 µM.
(§20) o Note: The exact enzyme units (U) required must be determined by a preliminary activity
(§21) test to ensure the reaction is linear and within the dynamic range of the assay.
(§22) Substrate/Chromogen Solution (Prepare Fresh):
(§23) o To a tube containing assay buffer, add TMPD to a final concentration of 0.2-0.5 mM.
(§24) o Add Arachidonic Acid to a final concentration of 100 µM. Vortex gently.
(§25) o Keep this solution protected from light and on ice until use.
(§26) Assay Setup (Performed in duplicate or triplicate)

[2] = molecular target: T2, human recombinant COX-2 (Homo sapiens, UniProt P35354); experiment: In vitro COX-2 inhibition, fluorescent inhibitor screening assay kit; details: for inhibitory activity on COX-2: at a concentration of 100 μM
T2 sequence (P35354 18-604): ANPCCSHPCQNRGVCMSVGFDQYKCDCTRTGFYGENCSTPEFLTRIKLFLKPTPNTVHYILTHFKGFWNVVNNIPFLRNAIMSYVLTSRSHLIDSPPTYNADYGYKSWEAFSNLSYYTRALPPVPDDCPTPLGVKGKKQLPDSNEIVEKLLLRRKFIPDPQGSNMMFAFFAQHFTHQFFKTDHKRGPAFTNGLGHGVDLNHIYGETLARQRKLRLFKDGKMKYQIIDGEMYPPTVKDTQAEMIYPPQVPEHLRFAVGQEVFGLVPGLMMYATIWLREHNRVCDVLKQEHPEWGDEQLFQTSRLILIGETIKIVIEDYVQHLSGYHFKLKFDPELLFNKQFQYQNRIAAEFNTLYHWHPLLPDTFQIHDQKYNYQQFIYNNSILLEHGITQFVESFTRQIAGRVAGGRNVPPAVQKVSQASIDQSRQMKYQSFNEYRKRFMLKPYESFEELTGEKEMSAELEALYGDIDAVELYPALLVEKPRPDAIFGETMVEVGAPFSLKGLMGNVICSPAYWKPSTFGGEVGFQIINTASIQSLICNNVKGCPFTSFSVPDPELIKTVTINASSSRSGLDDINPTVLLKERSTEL
Procedure: as §2, §3, §4, §5, §6, §7, §8, §9, §10, §11, §12, §13, §14, §15
Phenol (acts as a cofactor for COX-2).
as §16, §17
o Keep all dilutions on ice.
as §18, §19, §20, §21, §22, §23, §24, §25, §26

[3] = tested on: carrageenan-induced paw edema; experiment: In vivo carrageenan-induced paw edema; details: 50 mg/kg oral, mice
[4] = tested on: TNF-α; experiment: ELISA of serum TNF-α in carrageenan-treated mice; type: in vivo; details: 50 mg/kg; carrageenan-treated mice at 3 h; compared to the control group
Procedure: To evaluate the anti-inflammatory mechanisms of these compounds, two key chemical mediators, TNF-α and IL-6, were assessed using enzyme-linked immunosorbent assay (ELISA).
(§1) All mice were sacrificed under anesthesia using ketamine/xylazine (50/15 mg/kg). Blood was collected for the ELISA assays to determine the levels of cytokines TNF-α and IL-6 using the Rat IL6 (Interleukin 6) ELISA Kit and Rat TNFα ELISA Kit (MyBioSource, San Diego, CA, USA), in accordance with the manufacturer’s instructions. The quantitative sandwich enzyme immunoassay technique is the fundamental principle of the TNF-α assay. A microplate was pre-coated with an antibody specific for TNF-α. Standards and samples were pipetted into the wells, and the immobilized antibody bound to any TNF-α that was present. A biotin-conjugated antibody that was specific for TNF-α was introduced to the wells after any unbound substances were removed. Horseradish peroxidase (HRP) conjugated with avidin was introduced to the wells subsequent to the cleaning process. After a wash to eliminate any unbound avidin–enzyme reagent, a substrate solution was introduced to the wells, and the color developed in proportion to the quantity of TNF-α bound in the initial step. The color development was halted, and the color intensity was quantified. Additionally, the Sandwich enzyme immunoassay is the test principle utilized for IL-6. The microtiter plates included in this preparation were pre-coated with an antibody that was specific to Rat IL6. A biotin-conjugated antibody specific to Rat IL6 was then added to the appropriate microtiter plate wells along with standards or samples. Subsequently, each microplate well was incubated with avidin conjugated to horseradish peroxidase (HRP). […] The addition of sulfuric acid solution terminated the enzyme–substrate reaction, and the color change was observed spectrophotometrically at a wavelength of 450 nm ± 10 nm. The concentration of Rat IL6 in the samples was subsequently determined by comparing the OD of the samples to the standard curve.
Blood was collected immediately following the decapitation of mice, performed in accordance with the institutional animal care and use committee (IACUC) guidelines. After decapitation, whole blood was allowed to flow freely and was collected directly into EDTA and heparinized tubes. The whole blood was centrifuged at 3000× g for 10 min at 4 °C, and the plasma was carefully collected and stored at –80 °C until further analysis.

[5] = tested on: gastric mucosa; experiment: Histopathological examination of stomach sections (H&E)
[6] = tested on: IL-6; experiment: ELISA of serum IL-6 in carrageenan-treated mice; type: in vivo; details: 50 mg/kg; carrageenan-treated mice at 3 h
Procedure: Therefore, the anti-inflammatory activity of the tested compounds may hinge on their ability to suppress the pro-inflammatory TNF-α and IL-6 levels.
as §1, with “curve. […]” for “curve.”

[7] = stomach sections stained with H&E; 50 mg/kg

Cc1cccc(NC(=O)Cn2cnc3c(cnn3-c3ccccc3)c2=O)c1 [Compound 5f, 2-(4-Oxo-1-Phenyl-1,4-Dihydro-5H-Pyrazolo[3,4-d]Pyrimidin-5-yl)-N-(m-Tolyl) Acetamide]
inhibitory activity on COX-1 [1]: no inhibitory activity
inhibitory activity on COX-2 [2]: no inhibitory activity

O=C(Cn1cnc2c(cnn2-c2ccccc2)c1=O)Nc1ccccc1 [Compound 5a, 2-(4-Oxo-1-Phenyl-1,4-Dihydro-5H-Pyrazolo[3,4-d]Pyrimidin-5-yl)-N-Phenyl Acetamide]
inhibitory activity on COX-1 [1]: no inhibitory activity
inhibitory activity on COX-2 [2]: no inhibitory activity

COc1ccc2c(c1)c(CC(=O)O)c(C)n2C(=O)c1ccc(Cl)cc1 [Indomethacin, indomethacin, reference compound]
Percentage of inhibition of carrageenan-induced paw edema ([3]; 1 h): 15.89%
Percentage of inhibition of carrageenan-induced paw edema ([3]; 2 h): 29.13%
Percentage of inhibition of carrageenan-induced paw edema ([3]; 3 h, 50 mg/kg): 32.33%
Percentage of inhibition of carrageenan-induced paw edema ([3]; 3 h, listed as indomethacin, 50 mg/kg): 32.33%

CC(=O)c1ccc(NC(=O)Cn2cnc3c(cnn3-c3ccccc3)c2=O)cc1 [Compound 5l, N-(4-Acetylphenyl)-2-(4-Oxo-1-Phenyl-1,4-Dihydro-5H-Pyrazolo[3,4-d]Pyrimidin-5-yl) Acetamide]
inhibitory activity on COX-1 [1]: no inhibitory activity
inhibitory activity on COX-2 [2]: no inhibitory activity

Cc1ccccc1NC(=O)Cn1cnc2c(cnn2-c2ccccc2)c1=O [Compound 5e, 2-(4-Oxo-1-Phenyl-1,4-Dihydro-5H-Pyrazolo[3,4-d]Pyrimidin-5-yl)-N-(o-Tolyl) Acetamide]
inhibitory activity on COX-1 [1]: no inhibitory activity
inhibitory activity on COX-2 [2]: no inhibitory activity

O=C(Cn1cnc2c(cnn2-c2ccccc2)c1=O)Nc1ccc([N+](=O)[O-])cc1 [Compound 5d, N-(4-Nitrophenyl)-2-(4-oxo-1-phenyl-1,4-dihydro-5H-pyrazolo[3,4-d]pyrimidin-5-yl) Acetamide]
Percentage of inhibition of carrageenan-induced paw edema ([3]; 1 h): 3.43%
Percentage of inhibition of carrageenan-induced paw edema ([3]; 2 h): 21.26%
Percentage of inhibition of carrageenan-induced paw edema ([3]; 3 h): 27.32%
TNF-α levels in serum [4]: No significant differences
IC50 [1]: 14.1 ± 0.47 µM
COX1 %inh ([1]; conc 0.01 (uM)): 0.25%
COX1 %inh ([1]; conc 0.1 (uM)): 1.77%
COX1 %inh ([1]; conc 1 (uM)): 8.07%
COX1 %inh ([1]; conc 10 (uM)): 49.5%
COX1 %inh ([1]; conc 100 (uM)): 76%
histological structure of the gastric mucosa [5, 7]: normal histological structure of the gastric mucosa
IC50 [2]: 0.49 ± 0.017 µM
SI, in vitro COX-2 selectivity index (COX-1 IC50/COX-2 IC50) [2]: 28.73
COX2 %inh ([2]; conc 0.01 (uM)): -402%
COX2 %inh ([2]; conc 0.1 (uM)): -301%
COX2 %inh ([2]; conc 1 (uM)): -167%
COX2 %inh ([2]; conc 10 (uM)): -15%
COX2 %inh ([2]; conc 100 (uM)): 76.6%

Cc1ccc(-c2cc(C(F)(F)F)nn2-c2ccc(S(N)(=O)=O)cc2)cc1 [Celecoxib, celecoxib, reference compound]
Percentage of inhibition of carrageenan-induced paw edema ([3]; 1 h): 0.31%
Percentage of inhibition of carrageenan-induced paw edema ([3]; 2 h): 44.88%
Percentage of inhibition of carrageenan-induced paw edema ([3]; 3 h): 56.14%
histological structure of the gastric mucosa ([5]; stomach sections stained with H&E, 50 mg/kg): normal gastric mucosal histology; also recorded: normal histological structure of the gastric mucosa

CC(=NO)c1ccc(NC(=O)Cn2cnc3c(cnn3-c3ccccc3)c2=O)cc1 [Compound 5m, N-(4-(1-(Hydroxyimino)Ethyl)Phenyl)-2-(4-Oxo-1-Phenyl-1,4-Dihydro-5H-Pyrazolo[3,4-d]Pyrimidin-5-yl) Acetamide]
IL-6 levels in serum [6]: significantly reduced
Percentage of inhibition of carrageenan-induced paw edema ([3]; 1 h): 3.43%
Percentage of inhibition of carrageenan-induced paw edema ([3]; 2 h, 50 mg/kg): 58.01%
Percentage of inhibition of carrageenan-induced paw edema ([3]; 3 h): 39.85%
TNF-α levels in serum [4]: significantly reduced
IC50 [1]: 57.3 ± 1.93 µM
COX1 %inh ([1]; conc 0.01 (uM)): 0.27%
COX1 %inh ([1]; conc 0.1 (uM)): 6.51%
COX1 %inh ([1]; conc 1 (uM)): 12.3%
COX1 %inh ([1]; conc 10 (uM)): 24.6%
COX1 %inh ([1]; conc 100 (uM)): 69.2%
histological structure of the gastric mucosa [5, 7]: normal histological structure of the gastric mucosa
IC50 [2]: 2.34 ± 0.08 µM
SI, in vitro COX-2 selectivity index (COX-1 IC50/COX-2 IC50) [2]: 24.47
COX2 %inh ([2]; conc 0.1 (uM)): -448%
COX2 %inh ([2]; conc 1 (uM)): -273%
COX2 %inh ([2]; conc 10 (uM)): -103%
COX2 %inh ([2]; conc 100 (uM)): 46.6%

Cc1ccc(NC(=O)Cn2cnc3c(cnn3-c3ccccc3)c2=O)cc1 [Compound 5g, 2-(4-Oxo-1-Phenyl-1,4-Dihydro-5H-Pyrazolo[3,4-d]Pyrimidin-5-yl)-N-(p-Tolyl) Acetamide]
inhibitory activity on COX-1 [1]: no inhibitory activity
inhibitory activity on COX-2 [2]: no inhibitory activity

COc1ccc(NC(=O)Cn2cnc3c(cnn3-c3ccccc3)c2=O)cc1 [Compound 5i, N-(4-Methoxyphenyl)-2-(4-Oxo-1-Phenyl-1,4-Dihydro-5H-Pyrazolo[3,4-d]Pyrimidin-5-yl) Acetamide]
inhibitory activity on COX-1 [1]: no inhibitory activity
inhibitory activity on COX-2 [2]: no inhibitory activity

O=C(Cn1cnc2c(cnn2-c2ccccc2)c1=O)Nc1ccc(Br)cc1 [Compound 5c, N-(4-Bromophenyl)-2-(4-Oxo-1-Phenyl-1,4-Dihydro-5H-Pyrazolo[3,4-d]Pyrimidin-5-yl) Acetamide]
inhibitory activity on COX-1 [1]: no inhibitory activity
IC50 [2]: > 100 µM
inhibitory activity on COX-2 [2]: no inhibitory activity

O=C(Cn1cnc2c(cnn2-c2ccccc2)c1=O)Nc1ccc(Cl)cc1 [Compound 5b, N-(4-Chlorophenyl)-2-(4-Oxo-1-Phenyl-1,4-Dihydro-5H-Pyrazolo[3,4-d]Pyrimidin-5-yl) Acetamide]
inhibitory activity on COX-1 [1]: no inhibitory activity
inhibitory activity on COX-2 [2]: no inhibitory activity

COc1ccccc1NC(=O)Cn1cnc2c(cnn2-c2ccccc2)c1=O [Compound 5h, N-(2-Methoxyphenyl)-2-(4-Oxo-1-Phenyl-1,4-Dihydro-5H-Pyrazolo[3,4-d]Pyrimidin-5-yl) Acetamide]
inhibitory activity on COX-1 [1]: no inhibitory activity
inhibitory activity on COX-2 [2]: no inhibitory activity

— PMC12472512, “Design, Synthesis, In Silico Docking, Multitarget Bioevaluation and Molecular Dynamic Simulation of Novel Pyrazolo[3,4-d]Pyrimidinone Derivatives as Potential In Vitro and In Vivo Anti-Inflammatory Agents” (Pharmaceuticals, 2025)
